The record followed here is article PMC6766947, “Multi-Armed 1,2,3-Selenadiazole and 1,2,3-Thiadiazole Benzene Derivatives as Novel Glyoxalase-I Inhibitors” (Molecules, 2019).

This assay deals with T1, human recombinant Glo-I (rhGlo-I) (Homo sapiens, UniProt Q04760).
T1 construct: purchased R&D Systems
T1 sequence (Q04760 2-184 limits assumed): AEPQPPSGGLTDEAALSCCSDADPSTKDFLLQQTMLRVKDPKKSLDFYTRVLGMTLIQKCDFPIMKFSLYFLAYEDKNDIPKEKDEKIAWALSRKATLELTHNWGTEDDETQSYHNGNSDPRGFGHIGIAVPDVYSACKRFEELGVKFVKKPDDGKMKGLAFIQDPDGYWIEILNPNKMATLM
Nature of the assay: In vitro Glo-I enzyme inhibition assay (UV-Vis, 240 nm). Format: biochemical. Conditions: for IC50: rhGlo-I, triplicates, 240 nm, 200 s, 25 °C, pH 7.0–7.2. As for the experimental part:
A total of twelve synthesized multi-arm benzene derivatives of 1,2,3-selenadiazole and 1,2,3-thiadiazole by M. Al-Smadi et al. were selected for the present study. The in vitro inhibitory activity of the compounds against the human Glo-I enzyme was measured using double-beam UV-Vis spectrophotometer (Biotech Engineering Management Co. Ltd., UK).
The Glo-I inhibitory activity was determined as reported previously. Briefly, human recombinant Glo-I (rhGlo-I), provided by R&D Systems® Corporation, was reconstituted by dissolving 0.5 mg/mL of it in sterile, deionized water before storing at –70 °C. The tested compounds were dissolved in DMSO to 10 mM stock solution. The assay buffer was prepared by mixing 0.1 M sodium phosphate dibasic solution and 0.1 M sodium phosphate monobasic solution with a pH of 7.0–7.2. The substrate mixture was prepared by mixing a suitable volume of 0.1 M sodium phosphate assay buffer with 100 mM methylglyoxal solution and 100 mM reduced glutathione. Finally, the tested compounds were mixed with the assay buffer, substrate solution mixture, and the Glo-I enzyme in a cuvette at an appropriate tested concentration. Each compound was tested in triplicates at λmax = 240 nm for 200 s at 25 °C.

In the case of `c1c(COc2ccc(-c3csnn3)cc2)cc(COc2ccc(-c3csnn3)cc2)cc1COc1ccc(-c2csnn2)cc1` [Compound 8], the 50% inhibitory concentration (IC50) worked out at 3000 ± 150 nM.

Regarding `c1cc(-c2csnn2)ccc1OCc1cc(COc2ccc(-c3csnn3)cc2)c(COc2ccc(-c3csnn3)cc2)cc1COc1ccc(-c2csnn2)cc1` [Compound 10], the IC50 was 2400 ± 130 nM. Besides, for the setting “fold difference in Glo-I inhibitory activity, sulfur vs selenium analogue”, the “activity relative to selenium containing counterpart” value is reported as “eight times more active”.

With `c1cc(-c2c[se]nn2)ccc1OCc1c(COc2ccc(-c3c[se]nn3)cc2)c(COc2ccc(-c3c[se]nn3)cc2)c(COc2ccc(-c3c[se]nn3)cc2)c(COc2ccc(-c3c[se]nn3)cc2)c1COc1ccc(-c2c[se]nn2)cc1` [Compound 11], the IC50 came out at 8300 ± 560 nM. On to `c1cc(-c2csnn2)ccc1OCc1c(COc2ccc(-c3csnn3)cc2)c(COc2ccc(-c3csnn3)cc2)c(COc2ccc(-c3csnn3)cc2)c(COc2ccc(-c3csnn3)cc2)c1COc1ccc(-c2csnn2)cc1` [Compound 12], for which the concentration for half-maximal inhibition (IC50) is 2670 ± 310 nM.

The term IC50 denotes the concentration at which inhibition is half-maximal.
